Data taken from publication PMC12738692, “Identification, characterization, and structure-activity relationship of the ASIC3-selective peptide WRPRFa” (Communications Chemistry, 2025).
Residue numbers refer to the chain shown, from its start. Where no end group is shown, it is not given here.

Legend:
human ASIC3 = molecular target: T1, human ASIC3 (Homo sapiens, UniProt Q9UHC3); test: QPatch II peptide concentration-response (I3s/Ipk); type: cell-based; settings: WT ASIC3, QPatch II, read-out: EC50 (95% CI)
T1 construct: CHO cells stably expressing human ASIC3 (NM_004769.1)
T1 sequence (Q9UHC3 1-531): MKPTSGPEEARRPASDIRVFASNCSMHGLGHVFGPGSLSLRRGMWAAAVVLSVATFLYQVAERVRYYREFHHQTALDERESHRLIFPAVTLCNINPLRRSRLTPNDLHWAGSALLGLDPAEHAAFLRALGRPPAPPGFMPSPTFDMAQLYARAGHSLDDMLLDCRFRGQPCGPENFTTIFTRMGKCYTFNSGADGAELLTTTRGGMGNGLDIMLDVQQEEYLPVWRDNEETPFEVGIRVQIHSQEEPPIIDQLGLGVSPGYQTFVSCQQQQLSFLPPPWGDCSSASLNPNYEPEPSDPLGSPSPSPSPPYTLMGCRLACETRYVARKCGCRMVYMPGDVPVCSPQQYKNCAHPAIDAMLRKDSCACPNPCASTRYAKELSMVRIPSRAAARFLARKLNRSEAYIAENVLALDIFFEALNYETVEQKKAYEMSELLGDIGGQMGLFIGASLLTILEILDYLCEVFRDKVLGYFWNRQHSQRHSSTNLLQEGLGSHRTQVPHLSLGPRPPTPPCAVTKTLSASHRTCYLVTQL
Procedure: RFamide peptide activity on ASIC3 was measured on the QPatch II platform (Sophion, Ballerup, Denmark) using either a CHO or HEK stable cell line and analyzed with Sophion Analyzer software (version 5.2). Prior to recording, the cells were washed twice in PBS (Gibco, Paisley, UK) and treated with Detachin (Genlantis, San Diego) for 3 min, then resuspended in their respective growth media without serum for a concentration of 2 × 10^6 cells/ml. A minimum of 5 mL of cells was added to the QStirrer, which was placed on the deck of the QPatch II and allowed to incubate at room temperature for a minimum of 20 min.
The bath solution contained 135 mM NaCl, 5 mM KCl, 4.8 mM CaCl2, 1 mM MgCl2, 10 mM HEPES, 10 mM MES, and 10 mM glucose adjusted to pH 7.4 with NaOH. The intracellular solution contained 65 mM CsF, 65 mM CsCl, 10 mM HEPES, 5 mM EGTA, 1 mM MgCl2, adjusted to pH 7.4 with CsOH. Cells were held at -60 mV and ASIC currents were evoked with 3 s applications of pH 6.3 buffer. Peptides were preincubated for at least 2 min. The extracellular solution was changed by dispensing 5 µL of buffer through the ~1.7 µL recording chamber, with a solution switch time of 100 ms, that exchanges 99% of the solution. Signals were acquired at 1 kHz and low-pass filtered at 300 Hz. Experiments performed on QPatch II are specifically indicated in the text.

ASIC3 E421Q = molecular target: T2, ASIC3 E421Q (Homo sapiens, UniProt Q9UHC3, E421Q); test: MPC peptide activity on ASIC3 E421Q mutant; type: cell-based; settings: Emax constrained, read-out: EC50 (95% CI)
T2 construct: human ASIC3 (NM_004769.4); P2A-mCherry reporter (C, cleaved yes); expressed in transfected cells; host or cells: CHO cells (85050302, Sigma), transient transfection
T2 sequence (Q9UHC3 1-531 E421Q): T1 sequence (Q9UHC3 1-531) with E421Q
Procedure: We individually mutated the four glutamates to glutamine to remove their charge but maintain the side chain structure (Fig. 4C). We tested each mutant by incubating HEK cells stably expressing ASIC3 or CHO cells transfected with mutant ASIC3 with 30 µM WRPRFa before a pH 6.3 acid stimulus.
Plasmids were transfected into CHO cells using Lipofectamine 3000 (Thermo) according to the manufacturer’s protocol. Cells were used for patch-clamp recordings 24–48 h after transfection.
CHO and HEK cells were tested in the whole-cell configuration on MPC platforms using an Axopatch 200B amplifier (Axon Instruments, San Jose, CA) and a Digidata 1322A or Digidata 1440A digitizer (Axon) using pClamp 9.2 or 10.7 (Molecular Devices, San Jose, CA), respectively. When testing transfected cells, red fluorescence from the cleaved mCherry reporter was used to identify cells expressing ASIC3, ASIC131, or ASIC313. For cells expressing transfected ASIC1a or ASIC2a, the green signal from the cleaved eGFP reporter was used. All electrophysiology data were analyzed with Clampfit 11.1 (Molecular Devices).
For peptide concentration-response curves, Bottom was set to 0 and Top was constrained to ≤ 1 for peptides that approached plateau phase or where I3s/Ipk reached 1. […] For activation- or desensitization-pH curves, Bottom was set to 0 and Top constrained to 1.

## WRPRF-NH2 [WRPRFa]
Human ASIC3
  EC50: 6.31 µM
ASIC3 E421Q
  EC50: ≥ 22.5 µM
